Measured values as given in patent US8927723B2, “Preparation of pyridonecarboxylic acid antibacterials” (AbbVie, Inc., priority 2004, dated 2015).
In brackets after ≈: the same amount, converted by molar mass.

Test: solubility of compounds having formula (VII) in ethyl acetate
Conditions: organic solvent or mixture

solubility: 6400 µg/mL (≈ 12.7 mM)
Compound: CCOC(=O)c1cn(-c2nc(N)c(F)cc2F)c2cc(N3CC(OC(=O)C(C)C)C3)c(F)cc2c1=O [CH(CH3)2, ethyl 1-(6-amino-3,5-difluoropyridin-2-yl)-6-fluoro-7-(3-(isobutyryloxy)azetidin-1-yl)-4-oxo-1,4-dihydroquinoline-3-carboxylate]
